{"source": "patent US20070048812A1", "about": "“Cell-based luminogenic and nonluminogenic proteasome assays” (priority 2005, published 2007)", "key": {"calpain I": {"molecular_target": "T1, calpain I (Homo sapiens, UniProt P07384)", "T1 sequence (P07384 1-714)": "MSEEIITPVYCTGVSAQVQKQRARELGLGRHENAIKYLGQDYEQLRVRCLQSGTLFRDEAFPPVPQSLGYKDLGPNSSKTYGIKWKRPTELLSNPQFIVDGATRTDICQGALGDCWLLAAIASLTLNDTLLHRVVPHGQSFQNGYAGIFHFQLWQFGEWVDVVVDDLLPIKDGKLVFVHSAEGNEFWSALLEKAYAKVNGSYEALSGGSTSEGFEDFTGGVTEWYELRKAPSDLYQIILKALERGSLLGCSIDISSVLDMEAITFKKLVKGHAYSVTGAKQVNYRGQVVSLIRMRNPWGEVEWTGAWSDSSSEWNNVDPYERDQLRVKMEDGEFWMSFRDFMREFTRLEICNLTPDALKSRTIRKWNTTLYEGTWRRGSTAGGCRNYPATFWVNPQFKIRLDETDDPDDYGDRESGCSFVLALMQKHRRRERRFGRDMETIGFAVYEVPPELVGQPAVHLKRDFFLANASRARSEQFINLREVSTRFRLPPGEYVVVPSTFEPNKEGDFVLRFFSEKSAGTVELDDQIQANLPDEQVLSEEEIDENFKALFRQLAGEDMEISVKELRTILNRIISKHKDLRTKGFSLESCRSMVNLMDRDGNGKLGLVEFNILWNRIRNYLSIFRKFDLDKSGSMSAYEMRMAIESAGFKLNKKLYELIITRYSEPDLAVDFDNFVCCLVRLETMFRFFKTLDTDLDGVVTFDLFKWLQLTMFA", "T1 sequence (P04632 1-268 partner)": "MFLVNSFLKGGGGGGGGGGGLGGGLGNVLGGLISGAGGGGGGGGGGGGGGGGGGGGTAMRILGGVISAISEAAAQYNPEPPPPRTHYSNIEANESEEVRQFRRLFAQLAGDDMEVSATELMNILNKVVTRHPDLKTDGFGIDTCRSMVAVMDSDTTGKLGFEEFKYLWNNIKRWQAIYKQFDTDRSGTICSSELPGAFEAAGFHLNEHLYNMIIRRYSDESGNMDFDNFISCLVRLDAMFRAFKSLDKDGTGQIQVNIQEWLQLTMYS", "experiment": "Lactacystin activity on purified calpain, LLVY-aminoluciferin luminescence", "assay_type": "biochemical", "conditions": "0.5 hour preincubation, calcium present (FIG. 2A)", "description": "(§1) After a 0.5 hour preincubation in 25 mM HEPES/0.5 mM EDTA/1 mM DTT, a 2×reagent was added (20 μM LLVY-aminoluciferin (SEQ ID NO:1)/3 mM CaCL2/10 mM MgSO4)."}, "proteasomes": {"molecular_target": "proteasomes (Homo sapiens, UniProt P28074)", "experiment": "Lactacystin activity on proteasomes, LLVY-aminoluciferin luminescence with DTT", "assay_type": "biochemical", "conditions": "at 20 μM, with DTT included (FIG. 2A)", "description": "as §1"}, "U937 cells": {"tested_on": "U937 cells", "experiment": "ATP content (viability), CellTiter-Glo", "assay_type": "cell-based", "conditions": "1.5 hours treatment, concentrations tested", "from_the_text": "(§2) Cell viability measurements were made using CellTiter Glo (Promega Corp.) in a parallel series of samples to confirm that viability was not affected by lactacystin treatment."}, "HL-60 cells": {"tested_on": "HL-60 cells", "experiment": "ATP content (viability), CellTiter-Glo", "assay_type": "cell-based", "conditions": "1.5 hours treatment, concentrations tested", "from_the_text": "as §2"}, "[1]": {"tested_on": "proteasome activities in Jurkat cells", "experiment": "Cell-based luminescent proteasome assay in Jurkat cells", "conditions": "1.5 hours inhibitor exposure", "description": "FIG. 3. Luminescence versus proteasome inhibitor concentration in Jurkat cells. Jurkatt cells were exposed to inhibitor (AdaAhxL3VS) for 1.5 hours and then contacted with LLVY-aminoluciferin (final concentration of 10 μM; SEQ ID NO:1).\nNCI-H226 cells (ATCC #CRL-5826) were maintained as an attached line using RPMI 1640 (Sigma #R-8005) with 10% fetal bovine serum (Hyclone # SH30070) and passaged as needed. Jurkat, HL-60 and U937 suspension cell lines were likewise maintained and passaged. To prepare cells for a cell-based proteasome assay, adherent cells were harvested from the parent flask by removing medium, rinsing the flask with D-PBS and incubated with trypsin-EDTA (Sigma T-4040) for 3 to 4 minutes at 37° C. The trypsin reaction was stopped by adding complete medium containing serum, and cells were then centrifuged 4 minutes at 200×G. The cell pellet was suspended in fresh medium, cells counted by trypan blue exclusion and adjusted to 1.11×10^5 cells/ml. […]\nFor instance, one vial of V859A (Luciferin Detection Reagent) is suspended with 10 ml of buffer to which 50 to 100 μl of substrate is added, and 100 μl of cells are combined with 100 μl of substrate containing reagent. […] This pre-incubation depletes the free aminoluciferin present in the substrate, thereby reducing potential background luminescence. […]"}, "U266 cells": {"tested_on": "U266 cells", "experiment": "Toxicity of proteasome inhibitor incubation to cells", "assay_type": "cell-based"}}}
{"compound": "CC(=O)N[C@@H](CSC(=O)[C@]1([C@@H](O)C(C)C)NC(=O)[C@H](C)[C@@H]1O)C(=O)O", "note": "[lactacystin]", "values": [{"measurement": "effect on calpain I", "setting": "calpain I", "value": "minimal effect"}, {"measurement": "inhibition of the proteasome", "setting": "proteasomes", "value": "incomplete inhibition"}, {"measurement": "cell viability (ATP assay, CellTiterGlo)", "setting": "U937 cells", "value": "did not kill the cells"}, {"measurement": "cell viability (ATP assay, CellTiterGlo)", "setting": "HL-60 cells", "value": "did not kill the cells"}]}
{"compound": "CC(C)CC(C=CS(C)(=O)=O)NC(=O)[C@H](CC(C)C)NC(=O)[C@H](CC(C)C)NC(=O)CCCCCNC(=O)CCCCCNC(=O)CCCCCNC(=O)CC12CC3CC(CC(C3)C1)C2", "note": "(stereo partly shown) [AdaAhx3L3VS, adamantane-acetyl-(6-aminohexanoyl)3-(leucinyl)3-vinyl-(methyl)-sulfone]", "values": [{"measurement": "chymotrypsin-like, trypsin-like and caspase-like proteasome activities", "setting": "[1]", "value": "blocked all three activities"}, {"measurement": "toxicity to the cells, short incubations", "setting": "U266 cells; incubation for 1 to 2 hours", "value": "not toxic"}, {"measurement": "toxicity to the cells, longer incubation times", "setting": "U266 cells; longer incubation times", "value": "induced apoptosis"}]}
